From patent publication US20240216362A1, “BENZOTHIAZOLE AND QUINOLINE DERIVATIVES FOR USE IN TREATING KAWASAKI DISEASE” (Shanghai Yao Yuan Biotechnology Co., Ltd., priority 2021, published 2024)
Where a name gives a salt, the structure may show the parent alone.

Key:
[1] = molecular target: T237M hALPK1 mutant (HEK293 A2 cells) (Homo sapiens (Human), UniProt Q96QP1, T237M); assay: Inhibition of IL-8 secretion in cells expressing T237M ALPK1 mutant; type: cell-based; conditions: 40 hours, relative to wild-type HEK293 cells
T237M hALPK1 mutant (HEK293 A2 cells), sequence (Q96QP1 whole entry T237M): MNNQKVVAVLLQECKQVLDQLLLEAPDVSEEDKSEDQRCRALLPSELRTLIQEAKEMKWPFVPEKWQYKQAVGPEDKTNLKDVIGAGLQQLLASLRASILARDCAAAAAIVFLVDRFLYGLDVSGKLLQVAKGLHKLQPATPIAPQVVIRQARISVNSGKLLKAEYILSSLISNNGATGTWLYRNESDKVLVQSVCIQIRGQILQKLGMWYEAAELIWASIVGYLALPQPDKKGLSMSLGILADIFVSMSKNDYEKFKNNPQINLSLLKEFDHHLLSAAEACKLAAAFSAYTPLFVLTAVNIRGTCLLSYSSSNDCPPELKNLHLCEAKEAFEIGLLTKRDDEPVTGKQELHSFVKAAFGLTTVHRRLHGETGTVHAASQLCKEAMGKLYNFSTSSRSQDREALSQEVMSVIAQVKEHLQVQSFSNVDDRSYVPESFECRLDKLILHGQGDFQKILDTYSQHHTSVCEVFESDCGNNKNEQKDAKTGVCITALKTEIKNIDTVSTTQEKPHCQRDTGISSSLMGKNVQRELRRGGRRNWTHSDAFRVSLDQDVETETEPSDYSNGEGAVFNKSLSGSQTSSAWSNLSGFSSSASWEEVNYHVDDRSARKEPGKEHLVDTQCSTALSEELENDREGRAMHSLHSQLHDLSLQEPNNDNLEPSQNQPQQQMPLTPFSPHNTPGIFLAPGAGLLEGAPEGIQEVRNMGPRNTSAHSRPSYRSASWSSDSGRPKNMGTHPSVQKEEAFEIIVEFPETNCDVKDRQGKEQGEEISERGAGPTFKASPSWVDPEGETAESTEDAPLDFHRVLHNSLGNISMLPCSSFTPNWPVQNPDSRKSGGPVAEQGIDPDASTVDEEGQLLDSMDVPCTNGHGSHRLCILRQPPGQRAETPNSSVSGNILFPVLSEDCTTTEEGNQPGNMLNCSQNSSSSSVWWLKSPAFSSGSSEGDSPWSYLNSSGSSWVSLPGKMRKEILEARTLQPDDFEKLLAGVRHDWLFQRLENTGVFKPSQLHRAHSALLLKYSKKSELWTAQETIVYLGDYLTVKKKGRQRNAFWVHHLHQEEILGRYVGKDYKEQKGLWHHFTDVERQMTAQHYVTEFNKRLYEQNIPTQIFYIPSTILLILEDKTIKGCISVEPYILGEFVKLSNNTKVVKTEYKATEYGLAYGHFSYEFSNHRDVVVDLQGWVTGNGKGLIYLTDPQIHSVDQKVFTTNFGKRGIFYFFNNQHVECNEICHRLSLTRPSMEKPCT
Experimental: (§1) HEK293 cells were cultured as described above prior to transient transfection with either empty vector or an expression vector encoding (i) human ALPK1 (hALPK1), (ii) hALPK1 with the T237M activating mutation (hALPK1-T237M) (iii) hALPK1 with the V1092A activating mutation (hALPK1-V1092A), or (iv) a kinase dead ALPK1 mutant (hALPK1-T237M-D1194S). Transfection was performed according to manufacturer's protocols (Lipofectamine™ 3000, ThermoFisher). Transfected cells were selected, seeded onto 96-well plates and treated with serial dilutions of the test compounds for 6.5 hr. Following treatment, cell viability was determined using a luminescent cell viability assay (Cell Counting-Lite Assay or “CCL Assay” from Vazyme Biotech Co., Ltd.) and cell free supernatants were collected and analyzed for IL-8 protein by IL-8 ELISA as described above. […] As shown in the figure, very little IL-8 was detectable in cells transfected with any of the empty vector, hALPK1, or the kinase dead hALPK1 mutant. In contrast, both of the activating mutations in hALPK1 induced significant IL-8 secretion.
Next, we tested a representative set of compounds for inhibition of IL-8 secretion in cells expressing each of the activating ALPK1 mutants. T237M and V1092A. […] For the T237M mutant study, we produced an HEK293 cell line (“A2”) stably expressing the T237M hALPK1 mutant. A2 cells were cultured in the presence of test compound (6 uM) for 40 hours total. Fresh medium and compound were added at 24 hours. Cell viability and IL-8 secretion were determined 16 hours after the second addition of compound, using the CCL assay and IL-8 ELISA as described above.

[2] = molecular target: hALPK1-V1092A (transiently transfected HEK293 cells) (Homo sapiens (Human), UniProt Q96QP1, V1092A); assay: Inhibition of IL-8 secretion in cells expressing V1092A ALPK1 mutant; type: cell-based; conditions: 24 hours, relative to wild-type HEK293 cells
hALPK1-V1092A (transiently transfected HEK293 cells), sequence (Q96QP1 whole entry V1092A): as the sequence (Q96QP1 whole entry T237M) above, with M237T, V1092A counted along it
Experimental: as §1
For the V1092A mutant study shown in Table 4, HEK293 cells were transiently transfected with hALPK1-V1092A or hALPK1 (wildtype) expression vectors and then treated with test compounds for 24 hours. Fresh medium and compound were added at 18 hours. Cell viability and IL-8 secretion were determined 6 hours after the second addition of compound, using the CCL assay and IL-8 ELISA as described above.

[3] = test system: IL1β mRNA induced by ALPK1 activation in THP-1-derived macrophages; assay: PMA-differentiated THP-1 cell based assay (IL1β mRNA); conditions: Homo sapiens; PMA-differentiated THP-1 cells, ALPK1 agonist stimulation 4 h; read-out: IC50 for inhibition of IL1β mRNA
Experimental: Peripheral blood mononuclear cells (PBMCs) from Kawasaki patients show activation of ALPK1-TIFA-IL10μ pathway. We evaluated the ability of ALPK1 inhibitors to suppress IL1β levels following ALPK1 activation in THP-1-derived macrophage cells in which the ALPK1-TIFA-IL1P pathway is activated by an ALPK1 agonist, D-glycero-D-manno-6-fluoro-heptose-1β-S-A DP.
THP-1 cells were cultured in RPMI 1640 containing 10% heat inactivated FBS, penicillin (100 units/ml) and streptomycin (100 μg/ml), and maintained in a humidified incubator with 95% atmospheric air and 5% CO2. Prior to the experiment, THP-1 cells were seeded into 24-well flat-bottom plate at a cell density of […]. Phorbol myristate acetate (PMA; 50 ng/ml) was used to treat THP-1 cells for 48 h, and then THP-1-derived macrophages were obtained. Following treatment THP-1 cells were pretreated with serially diluted compounds for 2 hours and then stimulated with D-glycero-D-manno-6-fluoro-heptose-1β-S-ADP for 4 h. […] The mRNA expression levels IL1β were detected by SYBR green gene expression assays. […] Relative expression was calculated by comparing to vehicle control and the values were plotted as fold induction. All activity results were expressed as the mean of triplicate determinations. IC50 was determined from dose response curve using Prism Software, version 6.00 from GraphPad Software.

[4] = test system: ALPK1-dependent innate immunity gene expression; assay: Inhibition of ALPK1 in coronary artery, aorta and heart muscle (innate immunity gene mRNA); type: in vivo, Sprague-Dawley (SD) rats; conditions: SD rats, 40 mpk oral, 2 h before ALPK1 agonist ip, tissue 3 h after agonist, compared with vehicle group
Source text: To examine if ALPK1 inhibitors can suppress innate immunity genes activated upon ALPK1 activation, SD rats were orally administered compound T007 and gene expression of innate immunity genes was activated by intraperitoneal administration of the ALPK1 agonist, D-glycero-D-manno-6-fluoro-heptose-1β-S-ADP. The coronary artery, aorta and heart muscle tissues were examined for inhibition of ALPK1 inhibitors on innate immunity gene expression.
Twenty male Sprague-Dawley (SD) rats were randomly divided into four groups. A first control group (“normal”) was administered vehicle (0.5% MC) orally, followed 2 hours later with PBS administered by intraperitoneal injection (ip). A second control group (“vehicle”) was administered vehicle (0.5% MC) orally, followed 2 hours later by ip administration of the ALPK1 agonist, D-glycero-D-manno-6-fluoro-heptosc-1β-S-ADP (50 ppk). Treatment groups were administered ALPK1 inhibitors (40 mpk) orally, followed 2 hours later by ip administration of the ALPK1 agonist. The coronary artery, cardiac muscle and aorta from each group were collected 3 hours after administration of the ALPK1 agonist. RNA was isolated and samples were analyzed by RT-PCR for expression of MCP-1 (CCL-2), CCL-7, CXCL-1, CXCL-11, CXCL-10, IL-1β, CCL-5, TNF-α, and IL-6 mRNA. Briefly, total RNA was extracted following the protocol of the Rneasy Mini Kit (QIAGEN, Germany). Messenger RNA was reverse transcribed to cDNA using HiScript Q RT SuperMix for qPCR Kit (Vazyme, Nanjing, China). Quantitative PCR was conducted using AceQ qPCR SYBR Green Master Mix Kit (Vazyme, Nanjing, China) on the QuantStudio 5 applied biosystems (Thermo scientific, USA). Relative mRNA levels were calculated using the 2−ΔΔCT method, and HPRT was used as a reference for gene expression normalization. Data were presented as the gene fold change against their respective expression in the control arm.

[5] = test system: ALPK1-dependent gene expression in PBMC; assay: Inhibition of ALPK1 in PBMC cells (gene mRNA); type: in vivo, Sprague-Dawley (SD) rats; conditions: SD rats, 10 mpk oral, 2 h before ALPK1 agonist ip, blood 3 h after agonist, compared with vehicle group
Source text: We examined whether ALPK1 inhibitors can suppress ALPK1-dependent activation of a set of such genes in rats. Animals were orally administered compound T007 and ALPK1-dependent gene expression was induced by intraperitoneal administration of the ALPK1 agonist, D-glycero-D-manno-6-fluoro-heptose-lo-S-ADP. PBMCs were collected and gene expression analyzed, as described in more detail below.
Thirty-six male Sprague-Dawley (SD) rats were randomly divided into six groups. A first control group (“normal”) was administered vehicle (0.5% MC) orally, followed 2 hours later with PBS administered by intraperitoneal injection (ip). A second control group (“vehicle”) was administered vehicle (0.5% MC) orally, followed 2 hours later by ip administration of the ALPK1 agonist, D-glycero-D-manno-6-fluoro-heptose-1β-S-ADP (50 ppk). Treatment groups were administered ALPK1 inhibitors (10 mpk) orally, followed 2 hours later by ip administration of the ALPK1 agonist. […] RNA was isolated and samples were analyzed by RT-PCR for gene expression. […] Quantitative PCR was conducted using AceQ qPCR SYBR Green Master Mix Kit (Vazvme, Nanjing, China) on the QuantStudio 5 applied biosystems (Thermo scientific, USA). Relative mRNA levels were calculated using the 2−ΔΔCT method, and HPRT was used as a reference for gene expression normalization. […]

[6] = molecular target: ALPK1 (Homo sapiens (Human), UniProt Q96QP1); assay: ALPK1 in vitro kinase assay (HTRF, TIFA phosphorylation); type: biochemical; conditions: ADP-Heptose activated ALPK1, TIFA substrate
ALPK1, sequence (Q96QP1 whole entry): as the sequence (Q96QP1 whole entry T237M) above, with M237T counted along it
Experimental: ALPK1 kinase activity was measured in an in vitro assay using ADP-Heptose as the ALPK1 ligand and activator of its kinase activity and TIFA protein as the ALPK1 phosphorylation substrate. Since phosphorylated TIFA proteins oligomerize, Homogeneous Time-Resolved Fluorescence (HTRF) was used to measure protein:protein interaction between HA-tagged TIFA proteins as an indicator of TIFA phosphorylation.
In brief, dose-response studies were performed with HEK293 cells cultured in Dulbecco's Modified Eagle Medium (DMEM) supplemented 10% fetal bovine serum (FBS, Hyclone™) containing antibiotics (pen/strep, G418) in 384-well assay plates. Each well contained 0.1 mg TIFA, ALPK1 (2 nM final concentration in reaction mixture) and kinase buffer (100 mM of HEPES pH 7.4, 4 mM DTT, 40 mM MgCl2, 20 mM of β-Glycerol phosphate disodium salt, 0.4 mM of Na3VO4, 0.16 mg/mL). […]
For HTRF, samples were incubated with a Tb cryptate-labeled anti-HA antibody for capturing HA-tagged proteins according to the manufacturer's instructions (PerkinElmer™, CisBio™) and the fluorescence signal was quantified (Tecan Infinite F NANO+). HTRF signals were calculated as the HTRF ratio (ratio of fluorescence measured at 665 nm and 620 nm)×104 (thereby using the signal at 620 nm as an internal standard).
IC50 values were determined using 3- or 4-parameter logistic equation using GraphPad Prism version 6.00. […]

| Structure (SMILES) | inhibition at 6 µM [1] [%] | inhibition at 6 µM [2] [%] | also measured |
| --- | --- | --- | --- |
| COc1cccc2ccc(NC(=O)c3c(F)cc(N4CCNCC4)cc3F)nc12 [Compound Q001, 2,6-difluoro-N-(8-methoxyquinolin-2-yl)-4-(piperazin-1-yl)benzamide] | 69 | 68 |  |
| COc1cccc2ccc(NC(=O)c3c(F)ccc(N4CCNCC4)c3F)nc12 [Compound Q005, 2,6-difluoro-N-(8-methoxyquinolin-2-yl)-3-(piperazin-1-yl)benzamide] |  | 52 |  |
| C#Cc1cccc2sc(NC(=O)c3c(F)cc(N4CCNCC4)cc3F)nc12 [Compound T007, N-(4-ethynylbenzo[d]thiazol-2-yl)-2,6-difluoro-4-(piperazin-1-yl)benzamide] | 91 | 95 | IC50 [3]: 21 nM; mRNA expression of aorta IL-6, CXCL-1, CXCL-10, CCL-2 [4]: significantly decreased; mRNA expression of cardiac muscle TNF-α, IL-1b, IL-6, CXCL-1, CXCL-10, CXCL-11, CCL-2 and CCL-5 [4]: significantly decreased; mRNA expression of coronary artery TNF-α, CXCL-1, CCL-2 and CCL-7 [4]: significantly decreased; mRNA expression of PBMC CXCL-1 [5]: significantly decreased |
| COc1cccc2sc(NC(=O)c3c(F)cc(N4CCNCC4)cc3F)nc12 [Compound T017, 2,6-difluoro-N-(4-methoxybenzo[d]thiazol-2-yl)-4-(piperazin-1-yl)benzamide hydrochloride] |  | 50 |  |
| O=C(Nc1nc2c(F)cc(F)cc2s1)c1c(F)cc(N2CCNCC2)cc1F [Compound T035, N-(4,6-difluorobenzo[d]thiazol-2-yl)-2,6-difluoro-4-(piperazin-1-yl)benzamide] |  |  | IC50 [6]: 1340 nM |
| C#Cc1cccc2sc(NC(=O)c3c(Cl)cc(N4CCNCC4)cc3Cl)nc12 [Compound T048, 2,6-dichloro-N-(4-ethynylbenzo[d]thiazol-2-yl)-4-(piperazin-1-yl)benzamide] | 66 |  |  |
| C#Cc1cccc2sc(NC(=O)c3c(C)cc(N4CCNCC4)cc3F)nc12 [Compound T050, N-(4-ethynylbenzo[d]thiazol-2-yl)-2-fluoro-6-methyl-4-(piperazin-1-yl)benzamide] |  |  | IC50 [6]: 15 nM |
